How the values were obtained:
MCF7 = experiment: cells; settings: Homo sapiens, MCF7, 72 h
Description: Cytotoxicity against human MCF7 cells after 3 days by MTT assay

[1] = Cytotoxicity against human Hep3B cells after 3 days by MTT assay; settings: 72 h
HepG2 = experiment: Cytotoxicity against human HepG2 cells after 3 days by MTT assay; settings: HepG2, 72 h
MDA-MB-231 = experiment: cells; settings: Homo sapiens, MDA-MB-231, 72 h
Description: Cytotoxicity against human MDA-MB-231 cells after 3 days by MTT assay

A549 = experiment: Cytotoxicity against human A549 cells after 3 days by MTT assay; settings: A549, 72 h

Row | IC50 (MCF7) [µM] | IC50 (MDA-MB-231) [µM] | Compound | IC50 [1] [µM] | IC50 (HepG2) [µM] | IC50 (A549) [µM]
1 | 2.83 | 0.63 | CCCCCCC(O)CCC[C@H](O)[C@H]1CC[C@H]([C@H](O)CC[C@@H](O)[C@H](O)CCCCCCCCCCCCC2=C[C@H](C)OC2=O)O1 (stereo not given in full) [SQUADIOLIN A] | 3.52 | 0.0056 | < 0.2
2 | 5.47 | 0.28 | CCCCCCCCCC[C@H](O)[C@@H](O)CC[C@H](O)[C@@H](O)CC[C@@H](O)[C@H]1CC[C@H](CCCCCCCCCC2=C[C@H](C)OC2=O)O1 [SQUADIOLIN B] | 6.98 | 0.011 | 2.75
3 | 3.62 | 14.5 | CCCCCCCCCCCC[C@H](O)[C@@H](O)CCCC[C@@H](O)[C@H]1CC[C@H](CCCCCCCC(O)CC2=C[C@H](C)OC2=O)O1 (stereo not given in full) [SQUADIOLIN C] |  | 3.48 | 8.11
4 | 0.96 | 17 | CCCCCCC(O)C(O)CCCCCC[C@@H](O)[C@H]1CC[C@H]([C@H](O)CCCCCCCCCCCCC2=C[C@H](C)OC2=O)O1 (stereo not given in full) [SQUAFOSACIN B] | 0.72 | 0.71 | 0.66
5 | 26.4 | 18.1 | CCCCCCCCCC[C@@H](O)[C@H]1CC[C@H]([C@H](O)CCCCCC(O)CCCCCCCCC2=C[C@H](C)OC2=O)O1 (stereo not given in full) [SQUAFOSACIN C] | 14 | 18.9 | 21
6 | 29.8 |  | CCCCCCCCCC[C@H](O)[C@H]1CC[C@@H]([C@@H](O)CCCCCCCCCCCCCCCCC2=C[C@H](C)OC2=O)O1 [SQUAFOSACIN G] |  |  | 

Further lines, the compound ahead of its results:

Row | Compound | IC50 (MCF7) [µM] | IC50 (MDA-MB-231) [µM] | IC50 [1] [µM] | IC50 (HepG2) [µM] | IC50 (A549) [µM]
7 | CCCCCCCCCC[C@@H](O)[C@H]1CC[C@H]([C@H](O)CCCCCCCCCCCCCCCCC2=C[C@H](C)OC2=O)O1 | 3.31 |  |  |  | 
8 | CCCCCCCCCCCCCC[C@@H](O)[C@H]1CC[C@H]([C@H](O)CCCCCCCCCCCCC2=C[C@H](C)OC2=O)O1 | 28.3 |  |  |  | 
9 | CCCCCCCCCC[C@@H](O)[C@H]1CC[C@@H]([C@@H](O)CCCCCCCCCCCCCCC2=C[C@H](C)OC2=O)O1 | 30.7 |  |  |  | 
10 | CCCCCCCCCCCCC(O)C1CCC(C(O)CCCCCCCCCCCCCCC2=CC(C)OC2=O)O1 (stereo not given) | 8.11 |  |  |  | 
11 | CCCCCCCCCC/C=C\CC[C@@H](O)[C@H]1CC[C@H]([C@H](O)CCCCCCCCCCCCC2=C[C@H](C)OC2=O)O1 [BULLATENCIN] |  |  | 31.4 |  | 
12 | CC(=O)O[C@H]1C(=O)[C@@]2(C)[C@H]([C@H](OC(=O)c3ccccc3)[C@]3(O)C[C@H](OC(=O)[C@H](O)[C@@H](NC(=O)c4ccccc4)c4ccccc4)C(C)=C1C3(C)C)[C@]1(OC(C)=O)CO[C@@H]1C[C@@H]2O [PACLITAXEL] |  | 0.0703 | 0.13 | 0.0468 | 
13 | CCCCCCCCCCCC[C@H](O)[C@H]1CC[C@@H]([C@@H](O)CCCCCCCCCCCCC2=C[C@H](C)OC2=O)O1 [SQUAFOSACIN F] | 35.1 | > 36 |  |  | 
